How the values were obtained:
[1] = according to biopharmaceutical classification; cited from earlier work
[2] = Single-dose crossover comparative bioavailability study, fixed combination vs co-administered reference drugs, plasma HPLC-MS/MS
Method: In another embodiment of the invention, bioavailability tests are performed to determine whether there are differences in the magnitude and rate of absorption between the test product of this invention (fixed dose combination) and co-administration of reference drugs that impact the bioavailability of the drugs upon administration.
On the other hand, the determination of the pharmacokinetic parameters of Cmax and area under the plasma concentration curve with respect to time (ABC0-t) are determined, which allow characterizing the bioavailability of the drug of this invention from its dosage form, in terms of speed and degree of respective absorption. Therefore, the purpose of the bioavailability tests is to determine if there are differences in the magnitude and speed of absorption between the test product of the present invention (fixed combination) and the co-administration of reference drugs that impact the bioavailability of the drugs when administered under fasting conditions.
A total of 44 healthy volunteers (27 men and 17 women) were randomized in the study. […] After a period of 7 half-lives, the pharmacokinetic effect of washout can be completely disregarded. Each volunteer received the treatments under study according to randomization.
The pharmacokinetic parameters were determined through independent model methods. Descriptive statistics are presented below in Tables 19-21.

[3] = reported, in Mexican population; cited from earlier work

SMILES | solubility [1] | Intrasubject Variability Coefficient, Ln (Cmax) ([2]; both, human, in vivo) | Intrasubject Variability Coefficient, Ln (ABC0-t) ([2]; vildagliptin pharmacokinetic parameter) | Intrasubject Variability Coefficient, Ln (ABC0-t) of glimepiride ([2]; both, human, in vivo) | Intrasubject Variability Coefficient, Ln (Cmax) of glimepiride ([2]; both, human, in vivo) | elimination half-life [3]
N#C[C@@H]1CCCN1C(=O)CN[C@@]12C[C@@H]3C[C@@H](CC(O)(C3)C1)C2 [vildagliptin] | high | 19.12% | 9.14% | – | – | –
CCC1=C(C)CN(C(=O)NCCc2ccc(S(=O)(=O)NC(=O)N[C@H]3CC[C@H](C)CC3)cc2)C1=O [glimepiride] | low | – | – | 15.58% | 28.21% | 7.5 ± 4 h

From patent publication US20230310462A1, “COMBINATION DRUG FOR THE CONTROL AND MANAGEMENT OF TYPE 2 DIABETES MELLITUS” (LABORATORIOS SILANES S.A. DE C.V., priority 2020, published 2023)
